Key:
C57BL/6 mice [1] = assay: DSS-induced acute colitis; format: in vivo, mouse; conditions: oral 20 mg/kg on day 4 and 6
Protocol: DSS-induced colitis: Acute experimental colitis in mice was induced by giving 3% (w/v) colitis grade DSS (MP Biomedicals) in drinking water for 7 days. Control animal received drinking water without DSS. All colitis group mice were randomly divided into three groups viz. vehicle treated (0.25% Na-CMC), UroA (20 mg/kg/day) and UAS03 (20 mg/kg/day) on the 4th and 6th day of DSS treatment. After 7 days, animals were put back on regular water for a period of 7 days. For chronic DSS colitis model, we used three cycles of 2.0% (w/v) DSS and each DSS cycle consisted or 7 days followed by 10 days of regular water and mice were treated with UroA (20 mg/kg/day) on every 4th and 6th day of DSS cycle.
(§1) Assessment of colitis severity and tissue collection: Mice were evaluated daily for change in body weight, stool consistency and rectal bleeding and score was given and combined to obtained disease activity index (MURTHY et al., (1993) “Treatment of dextran sulfate sodium-induced murine colitis by intracolonic cyclosporin” Dig Dis Sci, Vol. 38, pp. 1722-1734). After euthanasia, the colon was removed and flushed with PBS containing (1 mM PMSF and 0.2 mM sodium orthovanadate). Colon length and colon weight were measured and small parts of colon were excised for myeloperoxidase (MPO) activity and RNA isolation. Tissues for MPO and RNA extraction were snap frozen in liquid nitrogen and stored in −80° C. until further analysis. Tissue for histological examination was stored in 10% phosphate buffered saline formalin. Blood was collected and serum was separated by centrifugation at 3500×g for 15 min. Serum cytokines (IL-6, TNF-α; Biolegend) and chemokines (CXCL1; R&D Systems) levels were measured by ELISA according to manufacturer's instructions.
(§2) In vivo intestinal permeability assay: The gut barrier function was evaluated by in vivo intestinal permeability using FITC-Dextran (MW 4000; FD4, Sigma-Aldrich, USA) (FURUTA et al., (2001) “Hypoxia-inducible factor 1-dependent induction of intestinal trefoil factor protects barrier function during hypoxia” J Exp Med, Vol. 193, pp. 1027-1034). Briefly, mice were orally administered with FITC-dextran (60 mg/100 gm body weight). Mice were fasted for 4 h prior to euthanization. The FITC-dextran concentration in serum was determined using the standard curve of FITC-dextran in serum (excitation, 485 nm; emission, 525 nm; BMG LABTECH).

C57BL/6 mice [2] = assay: TNBS-induced colitis; format: in vivo, mouse; conditions: for H&E analysis of colon sections / TNBS-induced body weight loss / TNBS-induced colon shortening / TNBS-induced downregulation of Cldn4 in colons / colon weight to length ratio / disease activity index (DAI) score / neutrophil infiltration (myeloperoxidase (MPO) activity) / serum inflammatory markers IL-6, TNF-α, CXCL1 and IL-10: oral 20 mg/kg at 12 h intervals; for loss of body weight, single treatment / TNBS-induced colitis, single treatment: single oral treatment at 4 or 20 mg/kg; for TNBS-induced colitis, single treatment: 12 h post TNBS
Protocol: 2,4,6-Trinitrobenzenesulfonic acid (TNBS)-induced colitis: Male C57BL/6 or Nrf2^−/− mice (6-8 week old age mice) were anesthetized with ketamine/xylazine (100 mg/12.5 mg/kg IP) mixture and administered with single dose of TNBS (2.5 mg/mice; Sigma Aldrich, USA) in 50% ethanol. After administration of TNBS, mice were held upside down for 30-60 sec to ensure proper distribution of TNBS in the colon. Control group received 50% ethanol without TNBS. Mice with TNBS were randomly divided into three groups, viz. vehicle (0.25% sodium carboxymethylcellulose (CMC)), UroA and UAS03. UroA or UAS03 was resuspended in 0.25% sodium-CMC at desired concentrations. The mice were given orally Veh or UroA or UAS03 in 100 μl at desired concentrations (4 or 20 mg/kg/body weight). The treatment started after 12 hours of TNBS administration and every 12 hours thereafter up to 72 hours. The experiment was terminated post 60 h TNBS, where AhR^−/− mice were involved. In some experiments, we treated only once at post 12 h TNBS administration. TNBS administered and control mice were euthanized for tissue and plasma collection after 80 hours of TNBS/ethanol treatment. Mice were examined for colitis phenotype.
as §1, §2
Myeloperoxidase (MPO) activity: The MPO activity in the colons was determined using the following procedure (KIM et al. (2012) “Investigating intestinal inflammation in DSS-induced model of IBD” J Vis Exp, Vol. 60, Article e3678 (6 pages)). Briefly, colon tissue was homogenized in 0.5% (w/v) hexadecyltrimethylammonium bromide (H6269; Sigma-aldrich, USA) in 50 mM PBS, pH 6.0. This homogenate underwent 3 freeze-thaw cycles and 10-15 sec sonication to obtain homogenous suspension. The supernatant from this suspension was collected after centrifiguaton at 13000×g for 20 min at 4° C. The supernatant (10 μl) was then added to 50 mM potassium phosphate buffer (pH 6.0) containing 0.167 mg/ml o-dianisidine (Sigma-Aldrich, USA) and 0.0005% H2O2(Sigma-Aldrich USA) and absorbance was taken at 450 nm (BMG, LABTECH) at 2 min interval. […]

[3] = test system: colon cancer cell line (SW480); assay: Proliferation assay with 5FU; conditions: for effect on cell proliferation, compound alone: without 5FU
C57BL/6 mice [4] = assay: TNBS-induced colitis; format: in vivo, mouse; conditions: for colitis phenotype, therapeutic regimen: 20 mg/kg from 24 h post-TNBS; for TNBS-induced colon shortening and colonic inflammation, pre-treatment / barrier function, pre-treatment: oral 20 mg/kg daily one week before TNBS, none after

| Compound | 3% DSS induced acute colitis (C57BL/6 mice [1]) | DAI scores during disease progression (C57BL/6 mice [1]) | H&E analysis of colon sections (C57BL/6 mice [2]) | TNBS-induced body weight loss (C57BL/6 mice [2]) | TNBS-induced colon shortening (C57BL/6 mice [2]) | TNBS-induced downregulation of Cldn4 in colons (C57BL/6 mice [2]) | colon weight to length ratio (C57BL/6 mice [2]) | disease activity index (DAI) score (C57BL/6 mice [2]) | neutrophil infiltration (myeloperoxidase (MPO) activity) (C57BL/6 mice [2]) | serum inflammatory markers IL-6, TNF-α, CXCL1 and IL-10 (C57BL/6 mice [2]) | loss of body weight, single treatment (C57BL/6 mice [2]) | TNBS-induced colitis, single treatment (C57BL/6 mice [2]) | fold less 5FU drug concentration to reach the similar effect ([3]; combination with 5FU) | increase in the inhibition of cell proliferation ([3]; with 3.12 μM of 5FU) | cell viability in combination with 5FU ([3]; with 5FU) [%] | effect on cell proliferation, compound alone [3] | colitis phenotype, therapeutic regimen (C57BL/6 mice [4]) | TNBS-induced colon shortening and colonic inflammation, pre-treatment (C57BL/6 mice [4]) | barrier function, pre-treatment (C57BL/6 mice [4]) |
| --- | --- | --- | --- | --- | --- | --- | --- | --- | --- | --- | --- | --- | --- | --- | --- | --- | --- | --- | --- |
| Oc1ccc2c(c1)COc1cc(O)ccc1-2 [UAS03, 6H-benzo[c]chromene-3,8-diol] | protected from 3% DSS induced acute colitis | overall decreased DAI scores | less tissue damage and inflammation scores | protected | protected from TNBS-induced colon shortening | protected from TNBS-induced downregulation of Cldn4 | reduced weight to length ratio | reduced | reduced neutrophil infiltration | reduced | did not reach significance | mitigated TNBS-induced colitis | more than 32 fold | approximately 6 fold | 40 | minimal effect | reversed the colitis phenotype | protected | enhanced barrier function |
| O=c1oc2cc(O)ccc2c2ccc(O)cc12 [UroA, 3,8-dihydroxy-6H-dibenzo[b,d]pyran-6-one] | protected from 3% DSS induced acute colitis | overall decreased DAI scores | less tissue damage and inflammation scores | protected | protected from TNBS-induced colon shortening | protected from TNBS-induced downregulation of Cldn4 | reduced weight to length ratio | reduced | reduced neutrophil infiltration | reduced | did not reach significance | mitigated TNBS-induced colitis |  |  |  | minimal effect | reversed the colitis phenotype | protected | enhanced barrier function |
